PubChem BioAssay AID330 (DTP/NCI, 2004)
Inconclusive results and toxic doses are left out. How the source made its calls: active means survival T/C of 150% or more; inactive means T/C below 125% in these data.

System: P388 leukemia ip, CD2F1 mice, survival T/C
Experiment: NCI In Vivo Anticancer Drug Screen. Data for tumor model P388 Leukemia (intraperitoneal) in CD2F1 (CDF1) mice
Details: endpoint: median survival time, higher = longer survival
How it was run: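 Mice carrying the transplanted tumor received test compound or vehicle. Survival was recorded in each group, and the value is the treated-group measurement divided by that of the vehicle-treated control group.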

[1] = dose: 60.0 mg/kg/injection, schedule: Q01DX005 (ip), vehicle: saline with Tween-80
[2] = dose: 120.0 mg/kg/injection, schedule: Q01DX005 (ip), vehicle: saline with Tween-80
[3] = dose: 240.0 mg/kg/injection, schedule: Q01DX005 (ip), vehicle: saline with Tween-80
[4] = dose: 50.0 mg/kg/injection, schedule: Q01DX005 (ip), vehicle: Klucel (hydroxypropylcellulose) (HPC)
[5] = dose: 7.5 mg/kg/injection, schedule: Q01DX005 (ip), vehicle: saline with Tween-80
[6] = dose: 15.0 mg/kg/injection, schedule: Q01DX005 (ip), vehicle: saline with Tween-80
[7] = dose: 30.0 mg/kg/injection, schedule: Q01DX005 (ip), vehicle: saline with Tween-80
[8] = dose: 50.0 mg/kg/injection, schedule: Q01DX005 (ip), vehicle: saline with Tween-80

Measured: T/C

O=C(CCCl)Nc1cccc(CCC(=O)c2ccccc2NC(=O)CCCl)c1
inactive: [1] 89 % of control | [2] 93 % of control | [3] 88 % of control

Cc1ncc(CCl)n1Cc1ccccc1
inactive: dose: 15.0 mg/kg/injection, schedule: Q01DX005 (ip), vehicle: saline 105 % of control | dose: 30.0 mg/kg/injection, schedule: Q01DX005 (ip), vehicle: saline 106 % of control | dose: 60.0 mg/kg/injection, schedule: Q01DX005 (ip), vehicle: saline 99 % of control

O=C(CBr)Nc1c(Br)cc(Cl)cc1Br
inactive: dose: 50.0 mg/kg/injection, schedule: Q01DX009 (ip), vehicle: saline with Tween-80 100 % of control | dose: 100.0 mg/kg/injection, schedule: Q01DX009 (ip), vehicle: saline with Tween-80 88 % of control | dose: 200.0 mg/kg/injection, schedule: Q01DX009 (ip), vehicle: saline with Tween-80 100 % of control

CCN(CC)CCn1ncc(Sc2cc([N+](=O)[O-])ccc2N)c(Cl)c1=O
inactive: [1] 100 % of control | [2] 89 % of control

COC(=O)c1cccc2cccc(C(=O)N(C)CCN(C)C)c12
inactive: [1] 97 % of control | [2] 95 % of control

N#Cc1cnc2nc1NCCCCCCC2
inactive: dose: 25.0 mg/kg/injection, schedule: Q04DX003 (ip), vehicle: saline with Tween-80 105 % of control | dose: 50.0 mg/kg/injection, schedule: Q04DX003 (ip), vehicle: saline with Tween-80 98 % of control | dose: 100.0 mg/kg/injection, schedule: Q04DX003 (ip), vehicle: saline with Tween-80 100 % of control

Nc1ccc(O)c(=O)cc1
inactive: [4] 96 % of control | dose: 100.0 mg/kg/injection, schedule: Q01DX005 (ip), vehicle: Klucel (hydroxypropylcellulose) (HPC) 95 % of control | dose: 200.0 mg/kg/injection, schedule: Q01DX005 (ip), vehicle: Klucel (hydroxypropylcellulose) (HPC) 92 % of control

O=C([Se]c1[se]c(=[Se])[se]c1[Se]C(=O)c1ccccc1)c1ccccc1
inactive: [5] 97 % of control | [6] 105 % of control | [7] 105 % of control | [8] 88 % of control

N#CC(C(=O)CCCC(=O)Nc1cccc([N+](=O)[O-])c1)c1c(Cl)cccc1Cl (stereo not drawn)
inactive: [8] 111 % of control | dose: 100.0 mg/kg/injection, schedule: Q01DX005 (ip), vehicle: saline with Tween-80 111 % of control | dose: 200.0 mg/kg/injection, schedule: Q01DX005 (ip), vehicle: saline with Tween-80 105 % of control

S=C(SSC(=S)C1CCCC1=NC1CCCCC1)C1CCCC1=NC1CCCCC1 (stereo not drawn)
inactive: dose: 50.0 mg/kg/injection, schedule: Q01DX009 (ip), vehicle: Klucel (hydroxypropylcellulose) (HPC) 101 % of control | dose: 100.0 mg/kg/injection, schedule: Q01DX009 (ip), vehicle: Klucel (hydroxypropylcellulose) (HPC) 108 % of control | dose: 200.0 mg/kg/injection, schedule: Q01DX009 (ip), vehicle: Klucel (hydroxypropylcellulose) (HPC) 108 % of control

CCO/C=C1/N=C(c2ccc3ccccc3c2)OC1=O
inactive: dose: 60.0 mg/kg/injection, schedule: Q01DX005 (ip), vehicle: saline + Tween-80 + alcohol 101 % of control | dose: 120.0 mg/kg/injection, schedule: Q01DX005 (ip), vehicle: saline + Tween-80 + alcohol 100 % of control | dose: 240.0 mg/kg/injection, schedule: Q01DX005 (ip), vehicle: saline + Tween-80 + alcohol 86 % of control

CCC1(c2cccc(C=O)c2)CCCCN(C)C1 (stereo not drawn)
inactive: dose: 12.5 mg/kg/injection, schedule: Q01DX005 (ip), vehicle: saline 99 % of control | dose: 25.0 mg/kg/injection, schedule: Q01DX005 (ip), vehicle: saline 97 % of control | dose: 50.0 mg/kg/injection, schedule: Q01DX005 (ip), vehicle: saline 97 % of control

CCOc1ccc(N=C2C=C(Nc3ccc(OCC)cc3)C(=Nc3ccc(OCC)cc3)C=C2Nc2ccc(OCC)cc2)cc1
inactive: [1] 96 % of control | [2] 95 % of control | [3] 92 % of control

COc1cccc2c1C(=O)c1c(O)c(CCl)cc(O)c1C2=O
inactive: dose: 3.75 mg/kg/injection, schedule: Q01DX005 (ip), vehicle: saline with Tween-80 99 % of control | [5] 92 % of control | [6] 89 % of control

N/N=C1\c2ccccc2-c2cccc(O)c21
inactive: [5] 101 % of control | [6] 97 % of control | [7] 93 % of control

COc1cc2ccc3c(c2cc1OC)CN1CCCC1C3 (stereo not drawn)
inactive: dose: 6.25 mg/kg/injection, schedule: Q01DX005 (ip), vehicle: Klucel (hydroxypropylcellulose) (HPC) 100 % of control | dose: 12.5 mg/kg/injection, schedule: Q01DX005 (ip), vehicle: Klucel (hydroxypropylcellulose) (HPC) 96 % of control | dose: 25.0 mg/kg/injection, schedule: Q01DX005 (ip), vehicle: Klucel (hydroxypropylcellulose) (HPC) 100 % of control | [4] 105 % of control
